Broadly, the ED50 is the midpoint of the dose-response relation.

In one test the test system is cardiac arrhythmia. Put plainly: Counteracting of ouabain-induced cardiac arrhythmia in anesthetized dogs. The test is classed as in vivo, adult mongrel dogs. Here is the method:
The procedure is carried out under barbiturate anesthesia using adult mongrel dogs of either sex weighing from 8 to 14 kg. A Grass Model 7 polygraph was used for recording femoral arterial blood pressure (Statham P23AC Transducer) and the electrocardiogram (Grass 7P4 Preamplifier). Ouabian was given intravenously in an initial dose of 40γ/kg in a second dose of 20γ/kg, given 30 minutes after the first dose, and in subsequent doses of 10γ/kg which were repeated at 15 minute intervals as required for producing cardiac arrhythmias that persisted for at least 15 minutes. When the arrhythmias were established the test compounds were administered by infusion (Harvard Model 942 Infusion Pump) into a femoral vein at a rate of 1 mg/kg/min. Concentrations of compounds were adjusted according to the weight of the dog to allow a volume infusion of 1 ml/min. Compounds that are considered to be active as antiarrhythmic agents cause reversion to sinus rhythm which is maintained for at least 60 minutes.

Test [1] concerns depressant effects induced by tetrabenazine. Put plainly: Antitetrabenazine test in mice (blocking of tetrabenazine-induced depressant effects). Conditions: Mus musculus, ip, compound intraperitoneally, tetrabenazine intravenously. The class given is in vivo. The source says: Compounds preferred for their antidepressant activity have the formula: [drawing 4] Illustrative of the antidepressant activity of compounds of Formula Ia are the effective dosages determined by the foregoing anti-tetrabenazine test.

Counter-ions that a name gives are not always drawn.

As for `CCN1C[C@@H](O)[C@H](Oc2cccc3ccccc23)C1` (relative stereo) [Example 55, Trans-1-ethyl-4-(1-naphthalenyloxy)-3-pyrrolidinol Hydrochloride], the minimal effective dose in the test on cardiac arrhythmia (Canis lupus familiaris, iv, 1 h, barbiturate anesthesia, ouabain arrhythmia, infusion into femoral vein 1 mg/kg/min, reversion to sinus rhythm maintained at least 60 minutes, read-out: antiarrhythmic activity, minimum effective dose) was 10.7 mg/kg. The “antiarrhythmic activity (in words)” value in the test with cardiac arrhythmia (ouabain-induced arrhythmia) was “exceptional antharrhythmic activity”. In test [1], `CN1C[C@@H](O)[C@H](Oc2ccccc2)C1` (relative stereo) [Example 3, Trans-1-methyl-4-phenoxy-3-pyrrolidinol] had an ED50 of 3.7 mg/kg. `CCN1C[C@@H](O)[C@H](Oc2ccccc2)C1` (relative stereo) [Example 46, Trans-1-ethyl-4-phenoxy-3-pyrrolidinol Oxalate Hydrate (4:1)] displayed an ED50 in test [1] of 3.5 mg/kg. In turn, `CCN1C[C@@H](O)[C@H](Oc2ccccc2Cl)C1` (relative stereo) [Example 48, Trans-4-(2-chlorophenoxy)-1-ethyl-3-pyrrolidinol Hydrochloride] registered an ED50 in test [1] of 2.8 mg/kg.

Take `CCN1C[C@@H](O)[C@H](Oc2c(Cl)cccc2Cl)C1` (relative stereo) [Example 49, Trans-4-(2,6-dichlorophenoxy)-1-ethyl-3-pyrrolidinol Hydrochloride]: the 50% effect level in test [1] (ED50) was put at a dose of 4.8 mg/kg.
